This note sets out measurements from patent US20260053767A1, “Hepatoprotective Compositions And Methods” (Jemyll, Ltd., priority 2022, published 2026).

In one test the test system is Wistar rats. Kind of test: Glucose challenge test and body weight in rats on high fat/high cholesterol diet, water with DDA at 1% of caloric intake. Type of test: in vivo. The source says:
Animal Studies. All in vivo studies used Wistar rats that were kept for 9 weeks on a high fat/high cholesterol diet. The animals were then separated into two groups, a control group that continued the high fat/high cholesterol diet with regular water, whereas the treatment group continued the high fat/high cholesterol diet with water containing DDA (dodecanedioic acid) in an amount of 1% of the caloric intake. After all animals were separated in the respective test groups, body weights were recorded, and a glucose challenge test administered. […] Such effect is particularly unexpected as the quantity of DDA in the food was well below any quantity that was reasonably expected.

The subject of the next test is rat primary HSCs. Kind of test: HSCs apoptosis by flow cytometry using propidium iodide staining. Format: cell-based. The note with it: 1% (w/vol). As to the method: A 10% (w/v) FFA-free BSA (Sigma) solution was prepared in ddH2O and maintained at 55° C. in a water bath. 10 mM FFA/1% BSA solution was obtained by complexing the appropriate amount of palmitate stock solution to 10% BSA at 55° C. for another 30 min. The above solution was then cooled to 25° C., filter sterilized and stored at −20° C. until use. Primary hepatocytes were grown in DMEM supplemented with palmitate (0.4 mM). After 24 h. CM was clarified by centrifugation at 6000 g to remove cell debris, sterile filtered with a 0.45 μm pore size membrane filter and stored in aliquots at −20° C. until use.
Hepatic Stellate cells: Primary hepatic stellate cells were isolated from Wistar rats as described previously (7). […] HSCs activation was assessed by flow cytometry by evaluating alpha-smooth muscle Actin (α-SMA) and Collagen type I alpha 1 (COLIA1) protein expression. α-SMA and COLIA1 antibodies were obtained from Thermo Fisher scientific (Waltham, MA). Flow cytometric analysis was conducted with CytoFlex (Beckman Coulter, Brea, CA) and data analyzed with Kaluza software (Beckman Coulter, Brea, CA). […]
Subsequently, protein expression of two established markers of HSCs activation, namely collagen type 1 (COLA1A) and alpha-smooth muscle actin (αSMA), was determined by flow cytometry analysis. […] Next, the inventors analyzed the effect of DODA on HSCs apoptosis. […]
A general note: Flow cytometry measures light scatter and fluorescence of single cells or particles in a stream.

In the case of `O=C(O)CCCCCCCCCCC(=O)O` [DDDA, dodecanedioic acid], in the test on Wistar rats, the “AUC blood glucose in glucose challenge” value was “significantly reduced” and the “blood glucose spike in glucose challenge” value is recorded as “significantly blunted”. Further, the HSCs apoptosis result in the test on rat primary HSCs (CM from palmitate-treated hepatocytes, propidium iodide staining) is listed as “induces HSCs apoptosis”. Besides, the “cell death (propidium iodide staining, flow cytometry)” value in the test on rat primary HSCs (rat primary HSCs, CM from steatotic hepatocytes, without compound 8.39%) stood at 16.16%.
